Reference: the CheMixHub viscosity set

Experiment: xn = mol fraction of the nth substance listed

Cc1ccc(C)cc1 + CCOC(C)=O
Conditions	viscosity [mPa·s]
298.15 K, 101 kPa, x2 = 0.044	0.601
298.15 K, 101 kPa, x2 = 0.1503	0.572
298.15 K, 101 kPa, x2 = 0.2506	0.547
298.15 K, 101 kPa, x2 = 0.3502	0.525
298.15 K, 101 kPa, x2 = 0.4374	0.507
298.15 K, 101 kPa, x2 = 0.4986	0.496
298.15 K, 101 kPa, x2 = 0.5505	0.487
298.15 K, 101 kPa, x2 = 0.6473	0.472
298.15 K, 101 kPa, x2 = 0.7519	0.457
298.15 K, 101 kPa, x2 = 0.8485	0.444
298.15 K, 101 kPa, x2 = 0.9426	0.434
303.15 K, 101.32 kPa, x2 = 0.0624	0.555
303.15 K, 101.32 kPa, x2 = 0.1828	0.534
303.15 K, 101.32 kPa, x2 = 0.2938	0.516
303.15 K, 101.32 kPa, x2 = 0.4031	0.498
303.15 K, 101.32 kPa, x2 = 0.5056	0.481
303.15 K, 101.32 kPa, x2 = 0.552	0.474
303.15 K, 101.32 kPa, x2 = 0.6041	0.465
303.15 K, 101.32 kPa, x2 = 0.6976	0.45
303.15 K, 101.32 kPa, x2 = 0.7887	0.436
303.15 K, 101.32 kPa, x2 = 0.8757	0.423
303.15 K, 101.32 kPa, x2 = 0.9585	0.411
308.15 K, 101 kPa, x2 = 0.044	0.527
308.15 K, 101 kPa, x2 = 0.1503	0.506
308.15 K, 101 kPa, x2 = 0.2506	0.488
308.15 K, 101 kPa, x2 = 0.3502	0.471
308.15 K, 101 kPa, x2 = 0.4374	0.457
308.15 K, 101 kPa, x2 = 0.4986	0.448
308.15 K, 101 kPa, x2 = 0.5505	0.44
308.15 K, 101 kPa, x2 = 0.6473	0.427
308.15 K, 101 kPa, x2 = 0.7519	0.414
308.15 K, 101 kPa, x2 = 0.8485	0.403
308.15 K, 101 kPa, x2 = 0.9426	0.393
313.15 K, 101.32 kPa, x2 = 0.2063	0.481
313.15 K, 101.32 kPa, x2 = 0.4077	0.45
313.15 K, 101.32 kPa, x2 = 0.5061	0.435
313.15 K, 101.32 kPa, x2 = 0.5991	0.423
313.15 K, 101.32 kPa, x2 = 0.8016	0.395

[Cl-].[Cl-].[Cl-].[Cl-].[Ge+4] + CCOCC
293.15 K, 101 kPa
Conditions	viscosity [mPa·s]
x2 = 0.2064	0.5
x2 = 0.4027	0.415
x2 = 0.5137	0.376
x2 = 0.6832	0.309
x2 = 0.7964	0.279

CCCCCCCCN + CCOCCO
308.15 K, 101 kPa
Conditions	viscosity [mPa·s]
x2 = 0.1595	1.136
x2 = 0.4226	1.512
x2 = 0.5324	1.655
x2 = 0.6307	1.75
x2 = 0.7193	1.725
x2 = 0.7994	1.654
x2 = 0.8723	1.568
x2 = 0.9389	1.497

O=Cc1ccccc1 + CCc1ccccc1
viscosity [mPa·s], 101 kPa
Conditions	x1 = 0.1197	x1 = 0.2343	x1 = 0.3441	x1 = 0.4494	x1 = 0.5504	x1 = 0.6474	x1 = 0.7407	x1 = 0.8304	x1 = 0.9168
303.15 K	0.6517	0.704	0.7588	0.8174	0.882	0.9577	1.043	1.13	1.203
308.15 K	0.6199	0.6713	0.7283	0.7882	0.8554	0.93	1.014	1.102	1.181
313.15 K	0.584	0.6318	0.691	0.7573	0.8273	0.9007	0.9837	1.07	1.158

CC(O)C(C)O (stereo not drawn) + CN1CCCC1=O
308.15 K, 101 kPa
Conditions	viscosity [mPa·s]
x1 = 0.0282	1.924
x1 = 0.0534	2.003
x1 = 0.1001	2.405
x1 = 0.1968	2.91
x1 = 0.295	3.344
x1 = 0.3939	4.159
x1 = 0.4746	5.033
x1 = 0.5881	7.256
x1 = 0.6924	8.758
x1 = 0.7916	13.58
x1 = 0.8948	23.29
x1 = 0.9431	32.45
x1 = 0.973	39.91

CC(O)C(C)O (stereo not drawn) + CN(C)C=O
308.15 K, 101 kPa
Conditions	viscosity [mPa·s]
x1 = 0.0509	0.724
x1 = 0.1003	0.859
x1 = 0.1898	1.033
x1 = 0.2855	1.36
x1 = 0.3729	1.788
x1 = 0.4785	2.544
x1 = 0.5949	5.332
x1 = 0.6808	8.504
x1 = 0.7219	10.79
x1 = 0.8883	24.97
x1 = 0.942	34.78

C[N+](C)(C)CCO.[Cl-] + CN(CCO)CCO
viscosity [mPa·s], 101 kPa
Conditions	x1 = 0.091	x1 = 0.111	x1 = 0.143
293.15 K	54.54	126.3	139.8
313.15 K	20.45	40.89	46.55
